Values quoted from earlier work in patent US10344034B2, “Pyrazolopyrimidone or Pyrrolotriazone derivatives, method of preparing same, and pharmaceutical applications thereof” (Shanghai Hengrui Pharmaceutical Co., Ltd., priority 2013, dated 2019).

Conditions: cited from earlier work

Compound: COc1cccc(-c2c(C)n(Cc3c(F)cccc3C(F)(F)F)c(=O)n(C[C@H](NCCCC(=O)O)c3ccccc3)c2=O)c1F [elagolix, Elagolix]
- safety and tolerability (endometriosis phase II trial): well verified
- serum estrogen level (women with endometriosis, elagolix 150 or 250 mg qd, vs leuprorelin depot and placebo): lower than that of the leuprorelin treatment group and placebo group
